Data published in patent publication US11628160B2, “Compositions and methods for treating brain injury” (Azevan Pharmaceuticals, Inc., priority 2017, dated 2023).

Tests used:
Type in all cases: in vivo, rat
[1] = test system: Male Sprague Dawley rats; test: Barnes Maze test (momentum exchange impact model)
Method: EXAMPLE. Momentum exchange impact model. This model features several advantageous translational differences over some head injury models, such as the controlled cortical impact injury model. For example, the head, neck and body can move with impact, and the velocity of head movement and energy transfer can be calculated and scaled mild to provide range from moderate to severe concussions. Studies are conducted with moderate impacts with neuroradiological evidence of contusions. Male rats are concussed twice with one day. Additional details are described in Viano et al., “Evaluation of three animal models for concussion and serious brain injury” Ann Biomed Eng. 40(1):213-26 (2012). […] Sham non-concussed test animals are given vehicle or test compound. Test animals are treated twice daily for 5 consecutive days. At two weeks post concussion cognitive behaviors are assessed, using for example, the Barnes maze and/or novel recognition models. In addition, motor behaviors are assessed, using for example, beam walk and/or rotarod tests. In each case, neuroradiological MRI is also performed.
Beginning on postnatal (P)70, animals are divided into 3 groups (n=6-7/group; Sham Control Group (Control, CG), Injury Group (IG), and Treatment Group (TG) and begin their head impact, and drug regimens. All groups are anaesthetized with 4% isoflurane in oxygen, and Injury group and Treatment group receive the first of two total head impacts) using a custom setup from Animal Imaging Research (AIR; Holden, Mass.) on P70. The day after the first impact (P71), test compound, such as AVN576, is administered to the Treatment group and the Sham Control group. In addition, a vehicle only control group (VCG) is administered saline. All administrations re administered to the Control and Treatment groups twice per day at 0700 and 1400 (IP @10 mg/kg). The drug regimen is continued over the following 4 days (5 days total). The second head impact is delivered two days following the first on P72. Two weeks post impact, animals are imaged and tested for cognitive and motor behaviors. In all evaluations made, there was not a significant difference between the sham control group (CG) receiving test compounds and vehicle-only sham control group (VCG) receiving vehicle.
EXAMPLE. Barnes Maze test results. This test assesses spatial learning and memory.

[2] = test system: Male Sprague Dawley rats; test: Motor behavior (balance beam, rotarod)
Method: EXAMPLE. Momentum exchange impact model. This model features several advantageous translational differences over some head injury models, such as the controlled cortical impact injury model. For example, the head, neck and body can move with impact, and the velocity of head movement and energy transfer can be calculated and scaled mild to provide range from moderate to severe concussions. Studies are conducted with moderate impacts with neuroradiological evidence of contusions. Male rats are concussed twice with one day. Additional details are described in Viano et al., “Evaluation of three animal models for concussion and serious brain injury” Ann Biomed Eng. 40(1):213-26 (2012). […] Sham non-concussed test animals are given vehicle or test compound. Test animals are treated twice daily for 5 consecutive days. At two weeks post concussion cognitive behaviors are assessed, using for example, the Barnes maze and/or novel recognition models. In addition, motor behaviors are assessed, using for example, beam walk and/or rotarod tests. In each case, neuroradiological MRI is also performed. […]

[3] = test system: Male Sprague Dawley rats; test: Edema and ventricular volumes (T2 relaxometry MRI); conditions: Treatment group; no significant difference to Control group
Method: EXAMPLE. T2 Relaxometry measurement of edema. MRI was conducted 24-28 days after the injury to characterize edematous volume in the lateral ventricles using T2 relaxometry. The time of imaging was based on the rat model used for TBI assessment by Charles River. Images are acquired using a multi-slice multi-echo (MSME) pulse sequence. The echo time (TE) is illustratively 11 ms, and 16 echoes are acquired during imaging with a recovery time (TR) of 2500 ms. Images are acquired with a field of view [FOV] 3 cm^2, data matrix=256×256×20 slices, thickness=1 mm. Values for […] relaxation time (T2) are obtained from all the slices using ParaVison 5.1 software. T2 is used to characterize the edematous volume in the lateral ventricle. The T2 values are used for segmentation and quantification of the ventricle volume. The T2 values are computed using the equation; y=A+Cexp (−t/T2) (S.D. weighted) obtained from the Paravision 5.1 software, where, A=absolute bias, C=signal intensity, t=echo time and T2=spin-spin relaxation time. The ventricle is identified as a hyperintensity on the T2 map over three 1 mm sections. The volume is calculated using a snake region growth algorithm in itk-SNAP (www.itksnap.org). The threshold is illustratively set at 6300 to 9000 as absolute pixel intensity. A point is seeded within the ventricle and the algorithm run until segmentation is complete. […]

[4] = test system: Male Sprague Dawley rats; test: Treatment in the momentum exchange impact model; conditions: concussed rats, two head impacts; IP 10 mg/kg twice daily 5 days; two weeks post impact; vs sham Control
Method: EXAMPLE. Momentum exchange impact model. This model features several advantageous translational differences over some head injury models, such as the controlled cortical impact injury model. For example, the head, neck and body can move with impact, and the velocity of head movement and energy transfer can be calculated and scaled mild to provide range from moderate to severe concussions. Studies are conducted with moderate impacts with neuroradiological evidence of contusions. Male rats are concussed twice with one day. Additional details are described in Viano et al., “Evaluation of three animal models for concussion and serious brain injury” Ann Biomed Eng. 40(1):213-26 (2012). […] Sham non-concussed test animals are given vehicle or test compound. Test animals are treated twice daily for 5 consecutive days. At two weeks post concussion cognitive behaviors are assessed, using for example, the Barnes maze and/or novel recognition models. In addition, motor behaviors are assessed, using for example, beam walk and/or rotarod tests. […]
The pneumatic pressure drive is replicated, 50 g compactor, as described by Viano and reproduced consistently, the 7.4, 9.3, and 11.2 m/s impact velocities described for mild, medium, and severe head injury, respectively. The data described herein are obtained from a 9.12 meters/sec impact velocity, as determined using high-speed video recordings. […]

In the case of C[C@@H](NC(=O)[C@@H](CC(=O)N1CCC(N2CCCCC2)CC1)N1C(=O)[C@@H](N2C(=O)OC[C@@H]2c2ccccc2)[C@H]1/C=C/c1cccc(I)c1)c1ccccc1 [Example 266], the “distance traveled before finding the goal box: Injury group relative to Treatment group” value ([1]; P=0.03) is reported as “significantly greater distance”, the “error duration (time exploring wrong holes): Injury group relative to Treatment group” value ([1]; P=0.03) is reported as “significantly more time exploring the wrong holes” and the “deficits in learning and memory, Barnes maze” value ([1]; Treatment group, did not differ from control group) is reported as “did not show any deficits in learning and memory”. The “latency to find the goal box: Injury group relative to Treatment group” value ([1]; collapsed across acquisition days, P=0.04) was “longer latencies to find the goal box”, the “rotarod latency to fall” value ([2]; Treatment group, Injury group 69.8±5.5, Control group 105.4±7.6, P=0.2) was 84.0 ± 9.0 s and the “overall motor behavior, Control vs Treatment group” value ([2]; concussed rats, IP 10 mg/kg twice daily 5 days) was “not a significant difference in overall motor behavior”. For the same compound, the “volume of lateral ventricles at the level of impact” value [3] was “ventricular volume returns to normal levels” and the “deficits in learning and memory” value [4] was “no deficits in learning and memory”.
